Source: ChEMBL document CHEMBL1201862, “PubChem BioAssay data set” (2004)
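Cells were grown in 96-well plates and exposed to each compound for 48 hours at five concentrations; endpoints were interpolated linearly between bracketing concentrations, or set to the highest concentration if not reached. At the GI50, growth is halved.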 Activity calls are given as the source filed them. Cut-off read from the data, not from the text of the source: active = GI50 up to about 1.1 µM and inactive = higher.

Tests used:
Assay in all cases: growth of human tumour cells (NCI), 48 h
786-0 = test system: 786-0
A498 = test system: A498
A549 = test system: A549
ACHN = test system: ACHN
BT-549 = test system: BT-549
CAKI-1 = test system: CAKI-1
CCRF-CEM = test system: CCRF-CEM
COLO 205 = test system: COLO 205
DU-145 = test system: DU-145
EKVX = test system: EKVX
HCC 2998 = test system: HCC 2998
HCT-116 = test system: HCT-116
HCT-15 = test system: HCT-15
HL-60 = test system: HL-60
HOP-62 = test system: HOP-62
HOP-92 = test system: HOP-92
HT-29 = test system: HT-29
Hs-578T = test system: Hs-578T
IGROV-1 = test system: IGROV-1
K562 = test system: K562
KM12 = test system: KM12
LOX IMVI = test system: LOX IMVI
MCF7 = test system: MCF7
MDA-MB-435 = test system: MDA-MB-435
MDA-N = test system: MDA-N
MOLT-4 = test system: MOLT-4
Malme-3M = test system: Malme-3M
NCI-H226 = test system: NCI-H226
NCI-H23 = test system: NCI-H23
NCI-H460 = test system: NCI-H460
NCI-H522 = test system: NCI-H522
NCI/ADR-RES = test system: NCI/ADR-RES
OVCAR-3 = test system: OVCAR-3
OVCAR-4 = test system: OVCAR-4
OVCAR-5 = test system: OVCAR-5
OVCAR-8 = test system: OVCAR-8
PC-3 = test system: PC-3
RPMI-8226 = test system: RPMI-8226
RXF 393 = test system: RXF 393
SF-268 = test system: SF-268
SF-295 = test system: SF-295
SF-539 = test system: SF-539
SK-MEL-28 = test system: SK-MEL-28
SK-MEL-2 = test system: SK-MEL-2
SK-MEL-5 = test system: SK-MEL-5
SK-OV-3 = test system: SK-OV-3
SN12C = test system: SN12C
SNB-19 = test system: SNB-19
SNB-75 = test system: SNB-75
SR = test system: SR
SW-620 = test system: SW-620
T47D = test system: T47D
TK-10 = test system: TK-10
U-251 = test system: U-251
UACC-257 = test system: UACC-257
UACC-62 = test system: UACC-62
UO-31 = test system: UO-31
M14 = test system: M14
MDA-MB-231 = test system: MDA-MB-231

COc1ccc(Nc2nc(N)c(C(=O)c3ccccc3)s2)cc1
GI50 (786-0): 0.0494 µM (active) | GI50 (A498): 5.66 µM (inactive) | GI50 (A549): 0.152 µM (active) | GI50 (ACHN): 7.67 µM (inactive) | GI50 (BT-549): 1.33 µM (inactive) | GI50 (CAKI-1): 0.0342 µM (active) | GI50 (CCRF-CEM): 0.0226 µM (active) | GI50 (COLO 205): 0.0398 µM (active) | GI50 (DU-145): 0.178 µM (active) | GI50 (EKVX): 0.142 µM (active) | GI50 (HCC 2998): 0.227 µM (active) | GI50 (HCT-116): 0.0267 µM (active) | GI50 (HCT-15): 0.0471 µM | GI50 (HL-60): < 0.01 µM (active) | GI50 (HOP-62): 16.7 µM (inactive) | GI50 (HOP-92): 33.6 µM (inactive) | GI50 (HT-29): 0.0162 µM (active) | GI50 (Hs-578T): 0.0826 µM (active) | GI50 (IGROV-1): 0.273 µM (active) | GI50 (K562): 0.0102 µM (active) | GI50 (KM12): 0.143 µM (active) | GI50 (LOX IMVI): 0.0524 µM (active) | GI50 (MCF7): 0.54 µM (active) | GI50 (MDA-MB-435): < 0.01 µM (active) | GI50 (MDA-N): < 0.01 µM (active) | GI50 (MOLT-4): < 0.0238 µM (active) | GI50 (Malme-3M): 45.2 µM (inactive) | GI50 (NCI-H226): 0.0935 µM (active) | GI50 (NCI-H23): 0.232 µM (active) | GI50 (NCI-H460): 0.0289 µM (active) | GI50 (NCI-H522): 0.0148 µM (active) | GI50 (NCI/ADR-RES): < 0.01 µM (active) | GI50 (OVCAR-3): 0.0607 µM (active) | GI50 (OVCAR-4): 2.44 µM (inactive) | GI50 (OVCAR-5): 19.5 µM (inactive) | GI50 (OVCAR-8): 0.139 µM (active) | GI50 (PC-3): 0.0396 µM (active) | GI50 (RPMI-8226): 0.0681 µM (active) | GI50 (RXF 393): 0.19 µM (active) | GI50 (SF-268): 0.839 µM (active) | GI50 (SF-295): 0.0164 µM (active) | GI50 (SF-539): 0.0129 µM (active) | GI50 (SK-MEL-28): 44.4 µM (inactive) | GI50 (SK-MEL-2): 0.054 µM (active) | GI50 (SK-MEL-5): 0.0689 µM (active) | GI50 (SK-OV-3): 0.0865 µM (active) | GI50 (SN12C): 0.0811 µM (active) | GI50 (SNB-19): 0.037 µM (active) | GI50 (SNB-75): 0.0258 µM (active) | GI50 (SR): < 0.01 µM (active) | GI50 (SW-620): 0.0197 µM (active) | GI50 (T47D): 40.2 µM (inactive) | GI50 (TK-10): 23.8 µM (inactive) | GI50 (U-251): 0.0302 µM (active) | GI50 (UACC-257): 29.5 µM (inactive) | GI50 (UACC-62): 0.05 µM (active) | GI50 (UO-31): 0.0912 µM (active)

O=C1OC(CN2CCOCC2)CN1/N=C/c1ccc([N+](=O)[O-])o1 (configuration not stated) [FURALTADONE]
GI50 (786-0): 62.7 µM (inactive) | GI50 (A549): 50.9 µM (inactive) | GI50 (ACHN): 35.6 µM (inactive) | GI50 (BT-549): 86.1 µM (inactive) | GI50 (CAKI-1): 38.5 µM (inactive) | GI50 (CCRF-CEM): 53 µM (inactive) | GI50 (COLO 205): 27.5 µM (inactive) | GI50 (DU-145): 73.3 µM (inactive) | GI50 (EKVX): 63.7 µM (inactive) | GI50 (HCT-116): 19.1 µM (inactive) | GI50 (HCT-15): 17 µM | GI50 (HL-60): 48.8 µM (inactive) | GI50 (HOP-62): 61.9 µM (inactive) | GI50 (HOP-92): 64.4 µM (inactive) | GI50 (HT-29): 32.4 µM (inactive) | GI50 (Hs-578T): 54.6 µM (inactive) | GI50 (IGROV-1): 32.3 µM (inactive) | GI50 (K562): 70 µM (inactive) | GI50 (KM12): 18.5 µM (inactive) | GI50 (LOX IMVI): 21.7 µM (inactive) | GI50 (M14): 20.7 µM (inactive) | GI50 (MCF7): 46 µM (inactive) | GI50 (MDA-MB-231): 33.3 µM (inactive) | GI50 (MDA-MB-435): 18 µM (inactive) | GI50 (MOLT-4): 51.6 µM (inactive) | GI50 (Malme-3M): 22.7 µM (inactive) | GI50 (NCI-H226): 39.1 µM (inactive) | GI50 (NCI-H23): 22.9 µM (inactive) | GI50 (NCI-H460): 31.4 µM (inactive) | GI50 (NCI-H522): 26 µM (inactive) | GI50 (NCI/ADR-RES): 35.4 µM (inactive) | GI50 (OVCAR-3): 21.9 µM (inactive) | GI50 (OVCAR-4): 45.5 µM (inactive) | GI50 (OVCAR-5): 61.5 µM (inactive) | GI50 (OVCAR-8): 45.8 µM (inactive) | GI50 (PC-3): 54.2 µM (inactive) | GI50 (RPMI-8226): 24.2 µM (inactive) | GI50 (SF-268): 60.3 µM (inactive) | GI50 (SF-295): 34.9 µM (inactive) | GI50 (SF-539): 42.1 µM (inactive) | GI50 (SK-MEL-28): > 100 µM (inactive) | GI50 (SK-MEL-2): 69.3 µM (inactive) | GI50 (SK-MEL-5): 23.6 µM (inactive) | GI50 (SK-OV-3): 74.6 µM (inactive) | GI50 (SN12C): 28.7 µM (inactive) | GI50 (SNB-19): 86.1 µM (inactive) | GI50 (SNB-75): > 100 µM (inactive) | GI50 (SR): 36.8 µM (inactive) | GI50 (SW-620): 50.7 µM (inactive) | GI50 (T47D): 28.8 µM (inactive) | GI50 (TK-10): > 100 µM (inactive) | GI50 (U-251): 31.6 µM (inactive) | GI50 (UACC-257): 35.7 µM (inactive) | GI50 (UACC-62): 34 µM (inactive) | GI50 (UO-31): 97.1 µM (inactive)
